# Measured values reported in US20210059959A1, “USE OF CANNABINOIDS IN THE TREATMENT OF MENTAL DISORDERS” (GW Pharma Limited, priority 2015, published 2021).
# Tested on: participants with schizophrenia or related psychotic disorder
# Experiment: Scale for the Assessment of Negative Symptoms (SANS), double-blind placebo-controlled study of CBD as adjunctive therapy
# Type: in vivo, human
# Conditions: CBD vs placebo
# Experimental: Example 1 below describes the use of a highly purified cannabis extract comprising cannabidiol (CBD) in a human clinical trial. Example 1 describes data produced in a double-blind, randomised, placebo-controlled, parallel group study of highly purified CBD as adjunctive therapy in first line treatment of schizophrenia or related psychotic disorder.
# An eight-week, multi-centre, double-blind, randomised, placebo-controlled, parallel group study was conducted with the aim to determine the efficacy, safety and tolerability of highly purified CBD as adjunctive therapy in first line treatment of schizophrenia or related psychotic disorder.
# This study evaluated the efficacy of highly purified CBD compared with placebo on the participant's PANSS Total score, ‘P’, ‘N’, ‘G’, SANS and BACS scores.
# Changes from baseline in PANSS scores (Total, ‘P’, ‘N’ and ‘G’), SANS and BACS were recorded at the start of the study (baseline) and at the end of treatment (after 6 weeks treatment with CBD or placebo).
# For inclusion in the study participants were required to be male or female aged 18 to 65 years, diagnosed with schizophrenia or a related psychotic disorder (such as schizoaffective or schizophreniform disorder) as defined by the Diagnostic and Statistical Manual of Mental Disorders Version 4. Participants must have been treated for a minimum of four-weeks and be on a stable dose of their current antipsychotic medication. […] A PANSS score in excess of 60 infers that the patient has symptoms related to schizophrenia or related disorders.
# The participants were randomised to one of two treatment groups which each consisted of 39 participants. Treatment was administered as either 5 ml CBD (100 mg/ml) oral solution to be taken twice daily or 5 ml matched placebo oral solution to be taken twice daily.
# Scale for the Assessment of Negative Symptoms (SANS)
# SANS assesses five symptom complexes to obtain clinical ratings of negative symptoms in participants with schizophrenia or related psychotic disorder. They are: affective blunting; alogia (impoverished thinking); avolition/apathy; anhedonia/asociality; and disturbance of attention.
# Assessments are conducted on a six-point scale (0=not at all to 5=severe). This scale was measured at each assessment visit (Visit 1-4)
# [1] = patients on amisulpride, P = 0.8772
compound,measurement,setting,value
"C=C(C)[C@@H]1CCC(C)=C[C@H]1c1c(O)cc(CCCCC)cc1O [CBD, Cannabidiol]","Change in baseline scores, SANS question 19: Sexual interest and activity: difference","all patients, P = 0.0364",(−0.4)
same,"Change in baseline scores, SANS sub-scale 4 (anhedonia/asociality): difference","all patients, P = 0.0605",(−1.2)
same,"Change in baseline scores, SANS question 24: Inattentiveness during mental status testing: difference","all patients, P = 0.0610",(−0.3)
same,"Change in baseline scores, SANS sub-scale 5 (disturbance of attention): difference","all patients, P = 0.0660",(−0.7)
same,"Change in baseline scores, SANS question 25: Global rating of attention: difference","all patients, P = 0.0773",(−0.2)
same,"Change in baseline scores, SANS question 20: Ability to feel closeness and intimacy: difference","all patients, P = 0.0918",(−1.1)
same,"Change in baseline scores, SANS total score: difference","all patients, P = 0.1168",(−3.5)
same,"Change in baseline scores, SANS question 18: Recreational interests and activity: difference","all patients, P = 0.1535",(−0.3)
same,"Change in baseline scores, SANS question 22: Global rating of anhedonia: difference","all patients, P = 0.1787",(−0.2)
same,"Change in baseline scores, SANS question 23: Social inattentiveness: difference","all patients, P = 0.2445",(−0.2)
same,"Change in baseline scores, SANS question 21: Relationships with friends and peers: difference","all patients, P = 0.8984",(0.0)
same,"Change in baseline scores, SANS score: difference","patients on amisulpride, P = 0.0687",(16.6)
same,"Change in baseline scores, SANS question 25: Global rating of attention: difference","patients on amisulpride, P = 0.0756",(1.0)
same,"Change in baseline scores, SANS question 19: Sexual interest and activity: difference","patients on amisulpride, P = 0.1971",(−0.8)
same,"Change in baseline scores, SANS question 18: Recreational interests and activity: difference","patients on amisulpride, P = 0.3833",(1.0)
same,"Change in baseline scores, SANS sub-scale 5 (disturbance of attention): difference","patients on amisulpride, P = 0.4023",(1.3)
same,"Change in baseline scores, SANS question 23: Social inattentiveness: difference","patients on amisulpride, P = 0.4206",(0.5)
same,"Change in baseline scores, SANS sub-scale 4 (anhedonia/asociality): difference","patients on amisulpride, P = 0.4357",(1.4)
same,"Change in baseline scores, SANS question 21: Relationships with friends and peers: difference","patients on amisulpride, P = 0.5671",(0.5)
same,"Change in baseline scores, SANS question 24: Inattentiveness during mental status testing: difference","patients on amisulpride, P = 0.8060",(−0.2)
same,"Change in baseline scores, SANS question 15: Impersistence at work or school: difference","patients on amisulpride, P = 0.8729",(0.0)
same,"Change in baseline scores, SANS question 20: Ability to feel closeness and intimacy: difference",[1],(0.1)
same,"Change in baseline scores, SANS question 22: Global rating of anhedonia: difference",[1],(0.1)
same,"Change in baseline scores, SANS question 25: Global rating of attention: difference","patients on aripiprazole, P = 0.0412",(−0.4)
same,"Change in baseline scores, SANS sub-scale 5 (disturbance of attention): difference","patients on aripiprazole, P = 0.1133",(−1.0)
same,"Change in baseline scores, SANS question 24: Inattentiveness during mental status testing: difference","patients on aripiprazole, P = 0.1740",(−0.4)
same,"Change in baseline scores, SANS question 15: Impersistence at work or school: difference","patients on aripiprazole, P = 0.1966",(−0.5)
same,"Change in baseline scores, SANS question 18: Recreational interests and activity: difference","patients on aripiprazole, P = 0.2979",(−0.3)
same,"Change in baseline scores, SANS question 23: Social inattentiveness: difference","patients on aripiprazole, P = 0.3546",(−0.2)
same,"Change in baseline scores, SANS question 19: Sexual interest and activity: difference","patients on aripiprazole, P = 0.4231",(−0.3)
same,"Change in baseline scores, SANS sub-scale 4 (anhedonia/asociality): difference","patients on aripiprazole, P = 0.7086",(−0.5)
same,"Change in baseline scores, SANS score: difference","patients on aripiprazole, P = 0.7642",(−1.4)
same,"Change in baseline scores, SANS question 21: Relationships with friends and peers: difference","patients on aripiprazole, P = 0.8346",(−0.1)
same,"Change in baseline scores, SANS question 20: Ability to feel closeness and intimacy: difference","patients on aripiprazole, P = 0.8965",(0.0)
same,"Change in baseline scores, SANS question 22: Global rating of anhedonia: difference","patients on aripiprazole, P = 0.9259",(0.0)
same,"Change in baseline scores, SANS score: difference","patients on olanzapine, P = 0.0050",(−14.3)
same,"Change in baseline scores, SANS question 20: Ability to feel closeness and intimacy: difference","patients on olanzapine, P = 0.0069",(−0.9)
same,"Change in baseline scores, SANS sub-scale 4 (anhedonia/asociality): difference","patients on olanzapine, P = 0.0071",(−3.7)
same,"Change in baseline scores, SANS question 15: Impersistence at work or school: difference","patients on olanzapine, P = 0.0242",(−0.9)
same,"Change in baseline scores, SANS question 22: Global rating of anhedonia: difference","patients on olanzapine, P = 0.0475",(−0.6)
same,"Change in baseline scores, SANS question 18: Recreational interests and activity: difference","patients on olanzapine, P = 0.0689",(−0.8)
same,"Change in baseline scores, SANS question 19: Sexual interest and activity: difference","patients on olanzapine, P = 0.0794",(−0.9)
same,"Change in baseline scores, SANS question 25: Global rating of attention: difference","patients on olanzapine, P = 0.1064",(−0.6)
same,"Change in baseline scores, SANS sub-scale 5 (disturbance of attention): difference","patients on olanzapine, P = 0.3556",(−1.0)
same,"Change in baseline scores, SANS question 21: Relationships with friends and peers: difference","patients on olanzapine, P = 0.4829",(−0.2)
same,"Change in baseline scores, SANS question 24: Inattentiveness during mental status testing: difference","patients on olanzapine, P = 0.5922",(−0.2)
same,"Change in baseline scores, SANS question 23: Social inattentiveness: difference","patients on olanzapine, P = 0.6757",(−0.2)
same,"Change in baseline scores, SANS question 24: Inattentiveness during mental status testing: difference","patients on other antipsychotics, P = 0.0654",(−1.6)
same,"Change in baseline scores, SANS question 25: Global rating of attention: difference","patients on other antipsychotics, P = 0.1763",(0.8)
same,"Change in baseline scores, SANS question 20: Ability to feel closeness and intimacy: difference","patients on other antipsychotics, P = 0.2601",(−0.4)
same,"Change in baseline scores, SANS question 15: Impersistence at work or school: difference","patients on other antipsychotics, P = 0.2746",(−10.6)
same,"Change in baseline scores, SANS score: difference","patients on other antipsychotics, P = 0.3359",(−8.3)
same,"Change in baseline scores, SANS sub-scale 5 (disturbance of attention): difference","patients on other antipsychotics, P = 0.4192",(−1.5)
same,"Change in baseline scores, SANS question 23: Social inattentiveness: difference","patients on other antipsychotics, P = 0.4246",(−0.5)
same,"Change in baseline scores, SANS sub-scale 4 (anhedonia/asociality): difference","patients on other antipsychotics, P = 0.5465",(−0.8)
same,"Change in baseline scores, SANS question 21: Relationships with friends and peers: difference","patients on other antipsychotics, P = 0.6373",(−0.2)
same,"Change in baseline scores, SANS question 22: Global rating of anhedonia: difference","patients on other antipsychotics, P = 0.6969",(−0.2)
same,"Change in baseline scores, SANS question 18: Recreational interests and activity: difference","patients on other antipsychotics, P = 0.8182",(−0.1)
same,"Change in baseline scores, SANS question 19: Sexual interest and activity: difference","patients on other antipsychotics, P = 0.9656",(0.0)
same,"Change in baseline scores, SANS sub-scale 4 (anhedonia/asociality): difference","patients on quetiapine, P = 0.0017",(−4.8)
same,"Change in baseline scores, SANS question 21: Relationships with friends and peers: difference","patients on quetiapine, P = 0.0044",(−0.7)
same,"Change in baseline scores, SANS question 18: Recreational interests and activity: difference","patients on quetiapine, P = 0.0233",(−1.3)
same,"Change in baseline scores, SANS question 19: Sexual interest and activity: difference","patients on quetiapine, P = 0.0501",(−1.4)
same,"Change in baseline scores, SANS question 23: Social inattentiveness: difference","patients on quetiapine, P = 0.0862",(−0.5)
same,"Change in baseline scores, SANS question 22: Global rating of anhedonia: difference","patients on quetiapine, P = 0.1043",(−1.1)
same,"Change in baseline scores, SANS question 20: Ability to feel closeness and intimacy: difference","patients on quetiapine, P = 0.1330",(−0.4)
same,"Change in baseline scores, SANS question 25: Global rating of attention: difference","patients on quetiapine, P = 0.2697",(−0.4)
same,"Change in baseline scores, SANS sub-scale 5 (disturbance of attention): difference","patients on quetiapine, P = 0.2701",(−1.1)
same,"Change in baseline scores, SANS score: difference","patients on quetiapine, P = 0.3150",(−5.4)
same,"Change in baseline scores, SANS question 24: Inattentiveness during mental status testing: difference","patients on quetiapine, P = 0.4421",(−0.6)
same,"Change in baseline scores, SANS question 15: Impersistence at work or school: difference","patients on quetiapine, P = 0.6640",(5.1)
same,"Change in baseline scores, SANS question 21: Relationships with friends and peers: difference","patients on risperidone, P = 0.0791",(0.5)
same,"Change in baseline scores, SANS sub-scale 4 (anhedonia/asociality): difference","patients on risperidone, P = 0.2800",(1.2)
same,"Change in baseline scores, SANS score: difference","patients on risperidone, P = 0.2955",(3.1)
same,"Change in baseline scores, SANS sub-scale 5 (disturbance of attention): difference","patients on risperidone, P = 0.3302",(0.7)
same,"Change in baseline scores, SANS question 25: Global rating of attention: difference","patients on risperidone, P = 0.3389",(0.2)
same,"Change in baseline scores, SANS question 24: Inattentiveness during mental status testing: difference","patients on risperidone, P = 0.4231",(0.3)
same,"Change in baseline scores, SANS question 18: Recreational interests and activity: difference","patients on risperidone, P = 0.4560",(−0.3)
same,"Change in baseline scores, SANS question 23: Social inattentiveness: difference","patients on risperidone, P = 0.5207",(0.2)
same,"Change in baseline scores, SANS question 15: Impersistence at work or school: difference","patients on risperidone, P = 0.6285",(0.1)
same,"Change in baseline scores, SANS question 19: Sexual interest and activity: difference","patients on risperidone, P = 0.6889",(0.1)
same,"Change in baseline scores, SANS question 20: Ability to feel closeness and intimacy: difference","patients on risperidone, P = 0.8648",(0.0)
same,"Change in baseline scores, SANS question 22: Global rating of anhedonia: difference","patients on risperidone, P = 0.9940",(0.0)
